# Patent US9963445B2, “Chemical compounds” (SYNGENTA PARTICIPATIONS AG, priority 2013, dated 2018)
# Assays:
# Type in all cases: in vivo
# Alopecurus myosuroides [1] = assay: Post-emergence herbicidal activity, glasshouse pot test; design: key: 0 = no damage to plant, 5 = total damage to plant; conditions: Application post-emergence, rate 1000 g/ha, evaluated after 13 days
# In short: (§1)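 Test solution: technical active ingredient in acetone/water (50:50) containing 0.5% Tween 20, applied as an aqueous spray to 8-day-old plants. Evaluation at 13 days, 0–5 damage scale.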
# Setaria faberi [2] = assay: as above; design: key: 0 = no damage to plant, 5 = total damage to plant; conditions: Application post-emergence, rate 1000 g/ha, evaluated after 13 days
# In short: as §1
# zea mays [3] = assay: as above; design: key: 0 = no damage to plant, 5 = total damage to plant; conditions: Application post-emergence, rate 1000 g/ha, evaluated after 13 days
# In short: as §1
# Amaranthus retroflexus [4] = assay: as above; design: key: 0 = no damage to plant, 5 = total damage to plant; conditions: Application post-emergence, rate 1000 g/ha, evaluated after 13 days
# In short: as §1
# Abutilon theophrasti [5] = assay: as above; design: key: 0 = no damage to plant, 5 = total damage to plant; conditions: Application post-emergence, rate 1000 g/ha, evaluated after 13 days
# In short: as §1
# Echinochloa crus-galli [6] = assay: as above; design: key: 0 = no damage to plant, 5 = total damage to plant; conditions: Application post-emergence, rate 1000 g/ha, evaluated after 13 days
# In short: as §1
# Alopecurus myosuroides [7] = assay: Pre-emergence herbicidal activity, glasshouse pot test; conditions: pre-emergence spray, rate 1000 g/ha, evaluated after 13 days, scale 0-5
# In short: (§2)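 Sown pots sprayed pre-emergence (day 1), acetone/water + 0.5% Tween 20 vehicle. Damage rated 0–5 at 13 days.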
# Setaria faberi [8] = assay: as above; conditions: pre-emergence spray, rate 1000 g/ha, evaluated after 13 days, scale 0-5
# In short: as §2
# zea mays [9] = assay: as above; conditions: pre-emergence spray, rate 1000 g/ha, evaluated after 13 days, scale 0-5
# In short: as §2
# Amaranthus retroflexus [10] = assay: as above; conditions: pre-emergence spray, rate 1000 g/ha, evaluated after 13 days, scale 0-5
# In short: as §2
# Abutilon theophrasti [11] = assay: as above; conditions: pre-emergence spray, rate 1000 g/ha, evaluated after 13 days, scale 0-5
# In short: as §2
# Echinochloa crus-galli [12] = assay: as above; conditions: pre-emergence spray, rate 1000 g/ha, evaluated after 13 days, scale 0-5
# In short: as §2
Compound,ALOMY herbicidal damage score (Alopecurus myosuroides [1]),SETFA herbicidal damage score (Setaria faberi [2]),ZEAMX herbicidal damage score (zea mays [3]),AMARE herbicidal damage score (Amaranthus retroflexus [4]),ABUTH herbicidal damage score (Abutilon theophrasti [5]),ECHCG herbicidal damage score (Echinochloa crus-galli [6]),"ALOMY damage score, application pre-emergence (Alopecurus myosuroides [7])","SETFA damage score, application pre-emergence (Setaria faberi [8])","ZEAMX damage score, application pre-emergence (zea mays [9])","AMARE damage score, application pre-emergence (Amaranthus retroflexus [10])","ABUTH damage score, application pre-emergence (Abutilon theophrasti [11])","ECHCG damage score, application pre-emergence (Echinochloa crus-galli [12])"
COC1=C(C)C(O)N(c2cc(C(F)(F)F)c(C(=O)CC#N)cn2)C1=O (stereo not drawn) [AI38],4,4,2,5,4,5,3,3,2,5,1,4
CCCC1=C(Cl)C(=O)N(c2cc(C(F)(F)F)ccn2)C1O (stereo not drawn) [AF81],4,4,2,5,5,5,3,2,2,5,4,5
COC1=C(C)C(O)N(c2cc(C(C)(F)F)c(-c3ccc(F)cc3)nn2)C1=O (stereo not drawn) [BI17],4,5,3,5,5,5,4,4,2,4,4,3
COC1=C(C)C(O)N(c2cc(OC(F)(F)F)ccn2)C1=O (stereo not drawn) [AI3],5,5,1,4,4,5,3,4,2,5,4,4
CC1=C(Cl)C(=O)N(c2cc(C)c([N+](=O)[O-])cn2)C1O (stereo not drawn) [AF48],2,3,0,5,0,3,1,0,0,0,0,1
CC1=C(Cl)C(=O)N(c2cc(C(F)(F)F)c(-c3ccc(Cl)cc3)cn2)C1O (stereo not drawn) [AF87],4,5,3,5,4,4,2,3,0,2,0,0
COC1=C(C)C(O)N(c2cc(C(F)(F)F)c(C(=O)N(C)OC)cn2)C1=O (stereo not drawn) [AI12],5,5,5,5,5,5,4,4,4,5,5,4
CC1=C(Cl)C(=O)N(c2cc(C3CC3)ncn2)C1O (stereo not drawn) [CF4],5,5,2,5,5,5,3,5,1,5,5,4
CCOC(=O)c1ccc(N2C(=O)C(OC)=C(C)C2O)nn1 (stereo not drawn) [BI4],0,0,0,0,0,0,0,0,0,0,0,0
COC1=C(C)C(O)N(c2cc(C(C)(F)F)c(C)nn2)C1=O (stereo not drawn) [BI24],4,5,3,5,5,5,4,4,3,5,5,4
CCOC(=O)c1cnc(N2C(=O)C(OC)=C(C)C2O)cc1Cl (stereo not drawn) [AI19],1,5,1,5,4,3,1,1,0,2,0,2
COC1=C(C)C(O)N(c2cc(C)c(Br)cn2)C1=O (stereo not drawn) [AI32],5,5,2,5,5,5,2,2,1,5,0,4
